Patent publication US11376268B2, “Methods and materials for treating human immunodeficiency virus infections” (priority 2015, dated 2022)

Tests used:
[1] = test system: J-Lat cells (a model of HIV latency using GFP HIV); assay: J-Lat cells time course flow cytometry (FIG. 8); assay type: cell-based; conditions: analyzed at 24, 48, and 72 hours
Experimental: J-Lat cells (a model of HIV latency using GFP HIV) were treated with bortezomib or ixazomib at the indicated doses and analyzed at 24, 48, and 72 hours.

[2] = test system: CD4 T cells from an HIV positive patient with ART suppressed HIV replication; assay: Flow cytometry of CD4 T cells from an HIV positive patient for intracellular p24 and activated caspase 3 (FIG. 7); assay type: cell-based, human; conditions: 48 hours
Experimental: FIG. 7 contains flow cytometry results of CD4 T cells from an HIV positive patient with ART suppressed HIV replication. Cells were treated with bortezomib or MLN-2238 (ixazomib) at the indicated doses and analyzed 48 hours later for intracellular p24 expression (as a measure of HIV reactivation), and for activated caspase 3 expression (as a measure of cell death).

[3] = test system: UPR pathway; assay: UPR pathway activation in J Lat cells: ATF4 and CHOP nuclear translocation, ATF6 cleavage (FIG. 13); assay type: cell-based; conditions: bortezomib (10 nM) or ixazomib (50 nM)
Experimental: FIG. 13. J-LAT-10.6 or Jurkat cells were treated with bortezomib (10 nM) or ixazomib (50 nM) for the indicated times. Bortezomib and ixazomib induced ATF4 and CHOP translocation into the nucleus, and ATF6 cleavage in J Lat cells, indicating the activation of the UPR pathway.

[4] = test system: HDAC-3; assay: HDAC-3 expression in primary CD4 T cells (FIG. 11); assay type: cell-based
Experimental: (§1) FIG. 11. […] Proteosome inhibitors were analyzed for the ability to alter the expression of HDAC. Bortezomib and ixazomib decreased HDAC-1, HDAC-3, and HDAC-4 expression in primary CD4 T cells.

[5] = test system: HDAC-1; assay: HDAC-1 expression in primary CD4 T cells (FIG. 11); assay type: cell-based
Experimental: as §1

[6] = test system: HIV-LTR; assay: Luc expression in primary CD4 T cells infected with HIV luc or transfected with HIV-LTR Luc (FIG. 9); assay type: cell-based; conditions: primary CD4 T cells infected with HIV luc or transfected with HIV-LTR Luc and TK renilla
Experimental: Primary CD4 T cells infected with HIV luc (top panel) or primary CD4 T cells transfected with HIV-LTR Luc and co-transfected TK renilla (bottom panel) were treated with the indicated doses of bortezomib or ixazomib, and analyzed for Luc expression as a measure of HIV reactivation.

[7] = test system: UPR pathway; assay: UPR pathway activation in J Lat cells: phospho PERK, phospho IRE1, JNK (FIG. 12); assay type: cell-based; conditions: bortezomib (10 nM) or ixazomib (50 nM)
Experimental: FIG. 12. J-LAT-10.6 or Jurkat cells were treated with bortezomib (10 nM) or ixazomib (50 nM) for the indicated times. Bortezomib and ixazomib induced phospho PERK, phospho IRE1, and JNK activation in J Lat cells, indicating the activation of the UPR pathway.

[8] = test system: J-Lat cells (a model of HIV latency, using GFP tagged HIV); assay: J-Lat cells flow cytometry for HIV GFP expression and activated caspase 3 (FIG. 6); assay type: cell-based; conditions: 24 hours, bortezomib 1, 10, or 20 nM, MLN-2238 (ixazomib) 10 or 50 nM
Experimental: FIG. 6 contains flow cytometry results of J-Lat cells (a model of HIV latency, using GFP tagged HIV) treated with nothing, bortezomib (1, 10, or 20 nM), or MLN-2238 (ixazomib; 10 or 50 nM) and analyzed 24 hours later for activated caspase 3 expression and for HIV expression.

[9] = test system: HDAC-4; assay: HDAC-4 expression in primary CD4 T cells (FIG. 11); assay type: cell-based
Experimental: as §1

## CC(C)C[C@H](NC(=O)[C@H](Cc1ccccc1)NC(=O)c1cnccn1)B(O)O [bortezomib, N-pyrazinecarbonyl-L-phenylalanine-L-leucine boronic acid]
[1]
  HIV reactivation from latency: caused HIV reactivation from latency
[2]
  HIV reactivation (intracellular p24 expression): caused HIV reactivation as indicated by increased HIV p24 expression
  death of HIV positive cells (activated caspase 3 expression in p24 positive cells): caused HIV positive cells to die
[3]
  ATF4 translocation into the nucleus: induced
  ATF6 cleavage: induced
  CHOP translocation into the nucleus: induced
[4]
  HDAC-3 expression: decreased
[5]
  HDAC-1 expression: decreased
[6]
  HIV reactivation (Luc expression): independently reactivated HIV
[7]
  JNK activation: induced
  phospho IRE1: induced
  phospho PERK: induced
[8]
  HIV reactivation (HIV GFP expression): caused HIV reactivation as indicated by increased HIV GFP expression
  death of HIV GFP positive cells (activated caspase 3 expression): caused HIV GFP positive cells to die
[9]
  HDAC-4 expression: decreased
